Where “and” joins values, the source holds several entries; their conditions need not be identical. Identical values can stand only once. Like-named read-outs stand apart in the source and are kept apart here.
Experiments:
[1] = tested on: non-cancerous mouse epidermal cells JB6 Cl41; assay: Cell viability, MTS assay, JB6 Cl41; format: cell-based
Procedure: (§1) MTS assay was used to measure the cell viability of tested normal and cancer cells. Cells were seeded into 96-well plates (“Jet Biofil”, Guangzhou, China) at density of 1.0 × 10^4/200 µL for 24 h at 37 °C in a 5% CO2 incubator. Then, cell monolayer was treated either with DMSO (control) or various concentrations of the triterpene glycosides 1–9 from S. pacificus (0.1, 0.5, 2.5, 12.5, 62.5 µM) in fresh appropriate culture medium for 24 h. Subsequently, the cells were incubated with 15 µL of 3-(4,5-dimethylthiazol-2-yl)-5-(3-carboxymethoxyphenyl)-2-(4-sulfophenyl)-2H-tetrazolium (MTS reagent) (“Promega”, Madison, WI, USA) for 3 h, and the absorbance of each well was measured at 490/630 nm using Power Wave XS microplate reader (“BioTek”, Wynusky, VT, USA). The concentration at which the compounds exert half of their maximal inhibitory effect on cell viability (IC50) was calculated by the AAT-Bioquest® online calculator [39]. The selectivity index (SI) was calculated as described previously using the following formula SI = IC50 of the compounds in normal cell (JB6 Cl41)/IC50 of the same compounds in human melanoma cell lines (SK-MEL-2, SK-MEL-28, or RPMI-7951).

[2] = tested on: human melanoma cells SK-MEL-2; assay: Cell viability, MTS assay, SK-MEL-2; format: cell-based; conditions: for SI (selectivity index) SK-MEL-2: IC50 JB6 Cl41 / IC50 SK-MEL-2
Procedure: as §1

[3] = tested on: human melanoma cells SK-MEL-28; assay: Cell viability, MTS assay, SK-MEL-28; format: cell-based; conditions: for SI (selectivity index) SK-MEL-28: IC50 JB6 Cl41 / IC50 SK-MEL-28
Procedure: as §1

[4] = tested on: human melanoma cells RPMI-7951; assay: Cell viability, MTS assay, RPMI-7951; format: cell-based; conditions: for SI (selectivity index) RPMI-7951: IC50 JB6 Cl41 / IC50 RPMI-7951
Procedure: as §1

[5] = tested on: Human erythrocytes (O(I)+); assay: Hemolysis assay; format: cell-based; conditions: 1 h, 37 °C, PBS pH 7.4
Procedure: Human erythrocytes (O(I)+) were obtained from Vladivostok blood transfusion station. Erythrocytes were centrifuged with PBS (pH 7.4) for 5 min at 4 °C by 450× g on a LABOFUGE 400R (Heraeus, Hanau, Germany) centrifuge three times. Then, the residue of erythrocytes was resuspended in ice-cold PBS (pH 7.4) to a final optical density of 2.0 at 700 nm and kept on ice. For the hemolytic assay, 180 µL of erythrocyte suspension was mixed with 20 µL of Cucumarioside A2-2 (positive control) and investigated compounds at concentrations range of 0.1, 0.5, 1, 5, 10 µM in V-bottom 96-well plates. After 1 h of incubation at 37 °C, plates were centrifuged at 900× g for 10 min on an LMC-3000 (Biosan, Riga, Latvia) laboratory centrifuge. Then, we carefully selected 100 µL of supernatant and transferred it to new flat plates, respectively. Lysis of erythrocytes was determined by measuring the concentration of hemoglobin in the supernatant with a microplate photometer Multiskan FC (Thermo Fisher Scientific, Waltham, MA, USA) at 570 nm. The effective dose causing 50% of erythrocytes hemolysis (ED50) was calculated using the computer program SigmaPlot 10.0. All experiments were made in triplicate, p < 0.01.

[6] = tested on: JB6 Cl41 cells; assay: Soft agar assay, EGF-induced neoplastic cell transformation; format: cell-based, mouse; conditions: compound 0.1 µM, EGF 1 ng/mL, soft agar, 2 weeks, vs positive control; for inhibition of EGF-induced neoplastic transformation of JB6 Cl41 cells: 0.1 µM; for inhibition at 0.1 µM: Mus musculus, JB6 Cl41, 336 h, read-out: inhibition of EGF-induced neoplastic transformation of JB6 Cl41 cells
Procedure: (§2) JB6 Cl41 cells (2.4 × 10^4) were exposed to epidermal growth factor (EGF) (1 ng/mL) or phorbol 12-myristate 13-acetate (TPA) (10 ng/mL) and treated either with DMSO (control) or the triterpene glycosides 1–9 from S. pacificus (0.1, 0.5, and 1 µM) in 1 mL of 0.3% basal medium Eagle (BME) agar containing 10% FBS, 2 mM L-glutamine, and 25 µg/mL gentamicin (agar mix). The cultures were maintained in a humidified atmosphere with 5% CO2 at 37 °C for 14 days, and the cell’s colonies were scored using a microscope, Motic AE 20 (XiangAn, Xiamen, China), and the ImageJ software bundled with 64-bit Java 1.8.0_112 (NIH, Bethesda, MD, USA). To determine the effect of investigated compounds on neoplastic cell transformation induced by ionizing radiation (X-ray or UVB), JB6 Cl41 cells (3 × 10^5/dish) were seeded in 60 mm dishes and cultured for 24 h at 37 °C in 5% CO2 incubator. Then, the cells were exposed to X-rays (X-ray system XPERT 80 (KUB Technologies, Inc, Milford, CT, USA)) at dose of 0.5 Gy or UVB (wavelengths below 312 nm) (Bio-Link UV irradiation system, Vilber, France) at dose of 0.3 J/cm^2 three times a week for 3 weeks. Irradiated JB6 Cl41 cells (2.4 × 10^4) were treated either with DMSO (control) or the triterpene glycosides 1–9 from S. pacificus (0.1, 0.5, and 1 µM) in 1 mL of agar mix. The cultures were maintained in a humidified atmosphere with 5% CO2 at 37 °C for 14 days, and the cell’s colonies were scored using a microscope, Motic AE 20 (XiangAn, Xiamen 361101, China), and the ImageJ software bundled with 64-bit Java 1.8.0_112 (NIH, Bethesda, MD, USA).

[7] = tested on: JB6 Cl41 cells; assay: Soft agar assay, TPA-induced neoplastic cell transformation; format: cell-based, mouse; conditions: compound 0.1 µM, TPA 10 ng/mL, soft agar, 2 weeks, vs positive control; for inhibition of TPA-induced neoplastic transformation of JB6 Cl41 cells: 0.1 µM; for inhibition at 0.1 µM: Mus musculus, JB6 Cl41, 336 h, read-out: inhibition of TPA-induced neoplastic transformation of JB6 Cl41 cells
Procedure: as §2

[8] = tested on: JB6 Cl41 cells; assay: Soft agar assay, X-ray-induced neoplastic cell transformation; format: cell-based, mouse; conditions: Mus musculus, JB6 Cl41, 504 h
Procedure: as §2

[9] = tested on: JB6 Cl41 cells; assay: Soft agar assay, UVB-induced neoplastic cell transformation; format: cell-based, mouse; conditions: for inhibition at 0.1 µM: Mus musculus, JB6 Cl41, light or radiation study, 504 h, read-out: inhibition of UVB-induced neoplastic cell transformation (decrease of colonies number), compound 0.1 µM, UVB 0.3 J/cm^2 three times a week for 3 weeks, soft agar; for inhibition of UVB-induced neoplastic cell transformation (decrease of colonies number): compound 0.1 µM, UVB 0.3 J/cm^2 three times a week for 3 weeks, soft agar
Procedure: as §2

[10] = tested on: SK-MEL-2 cells; assay: Soft agar assay, colony formation of cancer cells; format: cell-based, human; conditions: compound 0.1 µM, 14 days
Procedure: SK-MEL-2 cells (2.4 × 10^4) were treated either with DMSO (control) or the triterpene glycosides 1–9 from S. pacificus (0.1 µM) in 1 mL of agar mix. After 14 days, colonies of cancer cells were scored as described above.

[11] = read-out: IC50, cell viability SK-MEL-2, MTS assay, 24 h
[12] = read-out: inhibition of X-ray-induced cell transformation (JB6 Cl41 colonies formation), compound 0.1 µM, X-rays 0.5 Gy three times a week for 3 weeks, soft agar
[13] = Homo sapiens, SK-MEL-2, 24 h, MTS assay, 24 h, read-out: IC50, cell viability SK-MEL-2
[14] = Homo sapiens, SK-MEL-28, 24 h, MTS assay, 24 h, read-out: IC50, cell viability SK-MEL-28
[15] = Homo sapiens, RPMI-7951, 24 h, MTS assay, 24 h, read-out: IC50, cell viability RPMI-7951
[16] = compound 0.1 µM, X-rays 0.5 Gy three times a week for 3 weeks, soft agar, read-out: inhibition of X-ray-induced cell transformation (JB6 Cl41 colonies formation)

In the case of COC1C(O)C(CO)OC(OC2C(O)C(CO)OC(OC3C(C)OC(OC4C(OC5CCC6(C)C7CCC89C(=O)OC(C)(C=CC=C(C)C)C8C(OC(C)=O)CC9(C)C7=CCC6C5(C)C)OCC(O)C4O)C(OC4OCC(O)C(O)C4O)C3O)C2O)C1O (stereo not shown) [Compound 4, cucumarioside D], the IC50 ([1]; read-out: IC50, cell viability JB6 Cl41, MTS assay, 24 h, normal cells) is reported as 6.1 ± 0.4 µM, the IC50 [2, 11] is reported as 0.67 ± 0.04 µM and the IC50 ([3]; read-out: IC50, cell viability SK-MEL-28, MTS assay, 24 h) is reported as 8.3 ± 0.1 µM. For the same compound, the “SI (selectivity index) RPMI-7951” value [4] was 0.2, the IC50 ([4]; read-out: IC50, cell viability RPMI-7951, MTS assay, 24 h) was 29.2 ± 0.04 µM and the “ED50, effective dose causing 50% of erythrocytes hemolysis” value [5] was 2.48 µM and 2.48 ± 0.05 µM. For the same compound, the “inhibition of EGF-induced neoplastic transformation of JB6 Cl41 cells” value [6] was 92%, the “inhibition of TPA-induced neoplastic transformation of JB6 Cl41 cells” value [7] was 99% and the inhibition at 0.1 µM [8, 12] was 97%. For the same compound, the inhibition at 0.1 µM [9] was 86% and the “decrease of colonies number of SK-MEL-2 cells (colony formation)” value (shortened to “decrease … (colony formation)”) [10] was 70%.
For COC1C(O)COC(OC2C(O)C(COS(=O)(=O)O)OC(OC3C(C)OC(OC4C(OC5CCC6(C)C7CCC89C(=O)OC(C)(C=CC=C(C)C)C8C(OC(C)=O)CC9(C)C7=CCC6C5(C)C)OCC(O)C4O)C(O)C3O)C2O)C1O [Compound 3, 3β-O-{3-O-methyl-β-D-xylopyranosyl-(1→3)-6-sulfoxy-β-D-glucopyranosyl-(1→4)-β-D-quinovopyranosyl-(1→2)-β-D-xylopyranosyl}-16β-acetoxyholosta-7,22E,24-triene], the IC50 ([1]; Mus musculus, JB6 Cl41, 24 h, read-out: IC50, cell viability JB6 Cl41, MTS assay, 24 h, normal cells) was 6 ± 0.1 µM, the IC50 ([2]; Homo sapiens, SK-MEL-2, 24 h, read-out: IC50, cell viability SK-MEL-2, MTS assay, 24 h) was < 1 µM and the “SI (selectivity index) SK-MEL-2” value [2] was 8.8. The IC50 [2, 11] was 0.68 ± 0.06 µM, the IC50 ([3]; Homo sapiens, SK-MEL-28, 24 h, read-out: IC50, cell viability SK-MEL-28, MTS assay, 24 h) was 14.8 ± 0.03 µM and the “SI (selectivity index) SK-MEL-28” value [3] was 0.4. The IC50 ([4]; Homo sapiens, RPMI-7951, 24 h, read-out: IC50, cell viability RPMI-7951, MTS assay, 24 h) was 27.9 ± 0.09 µM, the “SI (selectivity index) RPMI-7951” value [4] was 0.22 and the “ED50, effective dose causing 50% of erythrocytes hemolysis” value [5] was 0.72 µM and 0.72 ± 0.05 µM. For the same compound, the “inhibition of EGF-induced neoplastic transformation of JB6 Cl41 cells” value [6] was 70%, the “inhibition of TPA-induced neoplastic transformation of JB6 Cl41 cells” value [7] was 36% and the inhibition at 0.1 µM [8, 12] was 26%. The inhibition at 0.1 µM [9] was 13% and the “decrease … (colony formation)” value [10] was 34%.
With CC(=O)OC1CC2(C)C3=CCC4C(C)(C)C(OC5OCC(O)C(O)C5OC5OC(C)C(OC6OC(CO)C(O)C(O)C6O)C(O)C5OC5OCC(O)C(O)C5O)CCC4(C)C3CCC23C(=O)OC(C)(C=CC=C(C)C)C13 [Compound 2, 3β-O-{β-D-glucopyranosyl-(1→4)-[β-D-xylopyranosyl-(1→2)]-β-D-quinovopyranosyl-(1→2)-β-D-xylopyranosyl}-16β-acetoxyholosta-7,22E,24-triene] the IC50 ([1]; MTS assay, 24 h, normal cells, read-out: IC50, cell viability JB6 Cl41) was 31.5 ± 4.1 µM, the IC50 [2, 13] was 37.6 ± 0.2 µM and the “SI (selectivity index) SK-MEL-2” value [2] was 0.8. For the same compound, the IC50 [3, 14] was 29 ± 0.02 µM, the “SI (selectivity index) SK-MEL-28” value [3] was 1.0 and the IC50 [4, 15] was 36.4 ± 0.2 µM. For the same compound, the “SI (selectivity index) RPMI-7951” value [4] was 0.87, the “ED50, effective dose causing 50% of erythrocytes hemolysis” value [5] was 4.08 ± 0.36 µM and the inhibition at 0.1 µM [6] was 25%. The inhibition at 0.1 µM [7] was 18%, the inhibition at 0.1 µM [8, 16] was < 15% and the “inhibition of UVB-induced neoplastic cell transformation (decrease of colonies number)” value [9] was “not effective”. For the same compound, the “decrease … (colony formation)” value [10] was 3%.
In the case of C=C(C)C1C2CC3(C)C4=CCC5C(C)(C)C(OC6OCC(O)C(O)C6OC6OC(C)C(OC7OC(CO)C(O)C(O)C7O)C(O)C6OC6OCC(O)C(O)C6O)CCC5(C)C4CCC13C(=O)O2 [Compound 8, 3β-O-{β-D-glucopyranosyl-(1→4)-[β-D-xylopyranosyl-(1→2)]-β-D-quinovopyranosyl-(1→2)-β-D-xylopyranosyl}-23,24,25,26,27-pentanor-5α-lanosta-7,20(22)-diene-18(16)-lactone], the IC50 ([1]; Mus musculus, JB6 Cl41, 24 h, MTS assay, 24 h, normal cells, read-out: IC50, cell viability JB6 Cl41) is reported as 32.8 ± 2.8 µM, the IC50 [2, 13] is reported as > 50 µM and the IC50 [3, 14] is reported as 42 ± 0.4 µM. For the same compound, the “SI (selectivity index) SK-MEL-28” value [3] was 0.8, the IC50 [4, 15] was > 50 µM and the “ED50, effective dose causing 50% of erythrocytes hemolysis” value [5] was 6.16 ± 0.05 µM. For the same compound, the inhibition at 0.1 µM [6] was 10%, the inhibition at 0.1 µM [7] was 20% and the inhibition at 0.1 µM [8, 16] was < 15%. The “inhibition of UVB-induced neoplastic cell transformation (decrease of colonies number)” value [9] was “not effective” and the “decrease … (colony formation)” value [10] was 3%.

Reference: publication PMC8951750, “In Vitro Anticancer and Cancer-Preventive Activity of New Triterpene Glycosides from the Far Eastern Starfish Solaster pacificus” (Marine Drugs, 2022)
